Results taken from publication PMC6758606, “Novel 2-substituted-benzimidazole-6-sulfonamides as carbonic anhydrase inhibitors: synthesis, biological evaluation against isoforms I, II, IX and XII and molecular docking studies” (Journal of Enzyme Inhibition and Medicinal Chemistry, 2019).

Assays:
Type in all cases: biochemical
[1] = molecular target: T1, hCA I (Homo sapiens, UniProt P00915); assay: stopped-flow CO2 hydrase assay, hCA I; conditions: recombinant enzyme, mean from 3 different assays, errors ± 5–10%
T1 construct: made in house
T1 sequence (P00915 whole entry): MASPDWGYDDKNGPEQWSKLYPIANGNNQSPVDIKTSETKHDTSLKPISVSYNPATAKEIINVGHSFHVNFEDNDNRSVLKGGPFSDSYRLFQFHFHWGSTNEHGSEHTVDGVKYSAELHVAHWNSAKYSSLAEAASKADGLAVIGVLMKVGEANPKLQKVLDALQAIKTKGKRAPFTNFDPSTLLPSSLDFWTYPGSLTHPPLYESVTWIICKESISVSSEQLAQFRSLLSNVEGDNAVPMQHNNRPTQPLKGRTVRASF
Experimental: (§1) An Applied Photophysics stopped-flow instrument has been used for assaying the CA-catalysed CO2 hydration activity. Phenol red (at a concentration of 0.2 mM) has been used as indicator, working at the absorbance maximum of 557 nm, with 20 mM Hepes (pH 7.5) as buffer, and 20 mM Na2SO4 (for maintaining constant the ionic strength), following the initial rates of the CA-catalysed CO2 hydration reaction for a period of 10–100 s. CO2 concentrations ranged from 1.7 to 17 mM for the determining inhibition constants. […] Uncatalyzed rates were determined in the same manner and subtracted from the total observed rates. Stock solutions of inhibitor (0.1 mM) were prepared in buffer with a maximum 3% DMSO, and dilutions up to 0.01 nM were done with the assay buffer. Inhibitor and enzyme solutions were preincubated for 15 min at room temperature prior to assay, in order to allow for the formation of the E–I complex. The inhibition constants were obtained by nonlinear least-squares methods using PRISM 3 and the Cheng-Prusoff equation, as reported earlier, and represent the mean from at least three different determinations. All CA isoforms were recombinant ones obtained in-house as reported earlier.
(§2) AAZ 1 was used as the standard drug in the assay.

[2] = molecular target: T2, hCA IX (Homo sapiens, UniProt Q16790); assay: stopped-flow CO2 hydrase assay, hCA IX; conditions: for Ki: recombinant enzyme, stopped-flow CO2 hydrase assay, mean from 3 different assays, errors ± 5–10%; for SR IX/II (Selectivity Ratio): selectivity for inhibiting hCA IX over hCA II (values equal Ki hCA II / Ki hCA IX)
T2 construct: made in house
Experimental: as §1, §2

[3] = molecular target: T3, hCA II (Homo sapiens, UniProt P00918); assay: stopped-flow CO2 hydrase assay, hCA II; conditions: recombinant enzyme, mean from 3 different assays, errors ± 5–10%
T3 construct: made in house
Experimental: as §1, §2

[4] = molecular target: T4, hCA XII (Homo sapiens, UniProt O43570); assay: stopped-flow CO2 hydrase assay, hCA XII; conditions: for Ki: recombinant enzyme, stopped-flow CO2 hydrase assay, mean from 3 different assays, errors ± 5–10%; for SR XII/II (Selectivity Ratio): selectivity for inhibiting hCA XII over hCA II (values equal Ki hCA II / Ki hCA XII)
T4 construct: made in house
T4 sequence (O43570 25-354): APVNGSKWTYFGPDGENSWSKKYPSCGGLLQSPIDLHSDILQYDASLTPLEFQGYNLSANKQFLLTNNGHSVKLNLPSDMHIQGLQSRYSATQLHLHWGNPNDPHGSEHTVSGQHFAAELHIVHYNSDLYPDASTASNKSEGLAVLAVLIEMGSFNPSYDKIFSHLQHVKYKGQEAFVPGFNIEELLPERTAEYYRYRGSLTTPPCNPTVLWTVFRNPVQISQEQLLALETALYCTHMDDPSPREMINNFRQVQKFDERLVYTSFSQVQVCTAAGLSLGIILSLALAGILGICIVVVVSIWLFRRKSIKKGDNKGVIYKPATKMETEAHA
Experimental: as §1, §2

| Structure (SMILES) | Ki [1] [nM] | Ki [2] [nM] | SR IX/II (Selectivity Ratio) [2] | Ki [3] [nM] | Ki [4] [nM] | SR XII/II (Selectivity Ratio) [4] |
| --- | --- | --- | --- | --- | --- | --- |
| NS(=O)(=O)c1ccc2nc(-c3ccccc3)[nH]c2c1 [Compound 9, 2-Phenyl-1H-benzo[d]imidazole-6-sulfonamide] | 92.8 | 47.6 | 2.2 | 104 | 78.9 | 1.3 |
| CCNS(=O)(=O)c1ccc2nc(-c3ccc(O)c(C(=O)O)c3)[nH]c2c1 [Compound 16, 5-(6-(N-ethylsulfamoyl)-1H-benzo[d]imidazol-2-yl)-2-hydroxybenzoic acid] | > 10000 | 665 | – | 7580 | 464 | – |
| NS(=O)(=O)c1ccc2nc(-c3ccc(O)c(C(=O)O)c3)[nH]c2c1 [Compound 14, 2-hydroxy-5-(6-sulfamoyl-1H-benzo[d]imidazol-2-yl)benzoic acid] | 95.6 | 34.2 | 2.0 | 68.6 | 3.8 | 18.1 |
| NS(=O)(=O)c1ccc2nc(-c3ccc(C(=O)O)cc3)[nH]c2c1 [Compound 11, 4-(6-Sulfamoyl-1H-benzo[d]imidazol-2-yl)benzoic acid] | 97.6 | 64.3 | 2.1 | 133 | 57 | 2.3 |
| COC(=O)c1cc(-c2nc3ccc(S(N)(=O)=O)cc3[nH]2)ccc1O [Compound 13, Methyl 2-hydroxy-5-(6-sulfamoyl-1H-benzo[d]imidazol-2-yl)benzoate] | 126 | 2.2 | 23.1 | 50.8 | 22.3 | 2.3 |
| NS(=O)(=O)c1ccc2nc(CCc3ccc(O)c(C(=O)O)c3)[nH]c2c1 [Compound 18, 2-Hydroxy-5-(2-(6-sulfamoyl-1H-benzo[d]imidazol-2-yl)ethyl)benzoic acid] | 441 | 7.6 | 3.3 | 24.8 | 4.2 | 5.9 |
| COC(=O)c1cc(CCc2nc3ccc(S(N)(=O)=O)cc3[nH]2)ccc1O [Compound 17, Methyl 2-hydroxy-5-(2-(6-sulfamoyl-1H-benzo[d]imidazol-2-yl)ethyl)benzoate] | 427 | 5.9 | 8.9 | 52.7 | 7.9 | 6.7 |
| NC(=O)c1ccc2nc(-c3ccc(O)c(C(=O)O)c3)[nH]c2c1 [Compound 19, 5-(6-Carbamoyl-1H-benzo[d]imidazol-2-yl)-2-hydroxybenzoic acid] | > 10000 | > 10000 | – | > 10000 | > 10000 | – |
| NS(=O)(=O)c1ccc2nc(-c3ccc(O)c(O)c3)[nH]c2c1 [Compound 12, 2-(3,4-Dihydroxyphenyl)-1H-benzo[d]imidazole-6-sulfonamide] | 169 | 41.6 | 1.9 | 79 | 8.5 | – |
| NS(=O)(=O)c1ccc2nc(CCc3ccc(O)cc3)[nH]c2c1 [Compound 8, 2-(4-Hydroxyphenethyl)-1H-benzo[d]imidazole-6-sulfonamide] | 214 | 14.4 | 3.3 | 47.8 | 9.8 | 4.9 |
| NS(=O)(=O)c1ccc2nc(Cc3ccc(O)cc3)[nH]c2c1 [Compound 7, 2-(4-Hydroxybenzyl)-1H-benzo[d]imidazole-6-sulfonamide] | 442 | 73.9 | 1.2 | 91.9 | 63.8 | 1.4 |
| NS(=O)(=O)c1ccc2nc(-c3ccc(O)cc3)[nH]c2c1 [Compound 6, 2-(4-Hydroxyphenyl)-1H-benzo[d]imidazole-6-sulfonamide] | 238 | 17.4 | 5.8 | 101 | 44.1 | 2.3 |
| CCNS(=O)(=O)c1ccc2nc(-c3ccc(O)c(C(=O)OC)c3)[nH]c2c1 [Compound 15, Methyl 5-(6-(N-ethylsulfamoyl)-1H-benzo[d]imidazol-2-yl)-2-hydroxybenzoate] | > 10000 | 390 | – | 8920 | 813 | – |
| COC(=O)c1ccc(-c2nc3ccc(S(N)(=O)=O)cc3[nH]2)cc1 [Compound 10, Methyl 4-(6-sulfamoyl-1H-benzo[d]imidazol-2-yl)benzoate] | 208 | 29.6 | 6.3 | 185 | 72.2 | 2.6 |
